Starred links: 1 amine or outer side, 2 acyl side, 3 side chain; linkers in the order of their positions; H or OH if unused. Positions of bridges follow the written chain, without caps; N, C: chain ends. Non-standard residues stand in square brackets, D forms with d. Residues, ends and D or L forms follow the SMILES beside them. Trp(1-CH2CO2Me) = COC(=O)Cn1cc(C[C@H](N)C(=O)O)c2ccccc21; Trp(1-CH2COOH) = N[C@@H](Cc1cn(CC(=O)O)c2ccccc12)C(=O)O; X4 = O=C(O)c1cc(NC(=S)[*:1])cc(NC(=S)[*:2])c1; X2 = O=C([C@H](CCNCC=[*:3])N[*:1])[*:2]; X1 = O=C([C@H](CNCC=[*:3])N[*:1])[*:2]; X3 = O=C(NCCCCCCNC(=O)[*:2])[*:1]; Hyp = O=C(O)[C@@H]1C[C@@H](O)CN1; Oxalyl = O=C(C(=O)[*:2])[*:1]; NMeNle = CCCC[C@H](NC)C(=O)O; NEtAla = CCN[C@@H](C)C(=O)O; NMeA = CN[C@@H](C)C(=O)O; Dab = NCC[C@H](N)C(=O)O; Dap = NC[C@H](N)C(=O)O
Biological target: T1, PD-1/PD-L1 (Homo sapiens, UniProt Q9NZQ7)
T1 construct: TVMV protease site (C); made in house; host or cells: HEK293T cells
Assay: PD-1/PD-L1 Homogenous Time-Resolved Fluorescence (HTRF) binding assay
Settings: PD-L1-His 10 nM final, PD-1-Ig 20 nM final
Excerpt: The ability of the compounds of formula (I) to bind to PD-L1 was investigated using a PD-1/PD-L1 Homogenous Time-Resolved Fluorescence (HTRF) binding assay.
Homogenous Time-Resolved Fluorescence (HTRF) Binding Assay
The interaction of PD-1 and PD-L1 can be assessed using soluble, purified preparations of the extracellular domains of the two proteins. The PD-1 and PD-L1 protein extracellular domains were expressed as fusion proteins with detection tags, for PD-1, the tag was the Fc portion of Immunoglobulin (PD-1-Ig) and for PD-L1 it was the 6 histidine motif (PD-L1-His). All binding studies were performed in an HTRF assay buffer consisting of dPBS supplemented with 0.1% […] bovine serum albumin and 0.05% (v/v) Tween-20. For the h/PD-L1-His binding assay, inhibitors were pre-incubated with PD-L1-His (10 nM final) for 15 m in 4 μl of assay buffer, followed by addition of PD-1-Ig (20 nM final) in 1 μl of assay buffer and further incubation for 15 m. HTRF detection was achieved using europium crypate-labeled anti-Ig (1 nM final) and allophycocyanin (APC) labeled anti-His (20 nM final). Antibodies were diluted in HTRF detection buffer and 5 μl was dispensed on top of the binding reaction. The reaction mixture was allowed to equilibrate for 30 minutes and the resulting signal (665 nm/620 nm ratio) was obtained using an EnVision fluorometer. Additional binding assays were established between the human proteins PD-1-Ig/PD-L2-His (20 & 5 nM, respectively) and CD80-His/PD-L1-Ig (100 & 10 nM, respectively).
Recombinant Proteins: Human PD-1 (25-167) with a C-terminal human Fc domain of immunoglobulin G (Ig) epitope tag [hPD-1 (25-167)-3S-IG] and human PD-L1 (18-239) with a C-terminal His epitope tag [hPD-L1(18-239)-TVMV-His] were expressed in HEK293T cells and purified sequentially by ProteinA affinity chromatography and size exclusion chromatography. Human PD-L2-His and CD80-His was obtained through commercial sources.
Table 1 lists the IC50 values for representative examples of this disclosure measured in the PD-1/PD-L1 Homogenous Time-Resolved Fluorescence (HTRF) binding assay.

T1 sequence (Q9NZQ7 18-239): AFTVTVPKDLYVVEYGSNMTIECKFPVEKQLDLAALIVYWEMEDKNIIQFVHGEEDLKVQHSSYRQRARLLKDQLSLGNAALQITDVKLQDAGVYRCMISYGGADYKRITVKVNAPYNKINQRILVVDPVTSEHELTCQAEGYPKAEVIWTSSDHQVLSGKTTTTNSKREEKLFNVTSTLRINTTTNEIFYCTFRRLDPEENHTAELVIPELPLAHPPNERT

SMILES | IC50
CCCC[C@H]1C(=O)N(C)[C@@H](CCCC)C(=O)N[C@@H](CC(C)C)C(=O)N[C@H](C(=O)NCC(N)=O)CSCC(=O)N[C@@H](Cc2ccc(O)cc2)C(=O)N(C)[C@@H](C)C(=O)N[C@@H](CC(N)=O)C(=O)N2CCC[C@H]2C(=O)N[C@H]2CNC(=O)C(=O)NCC[C@H](NC(=O)[C@H](Cc3c[nH]c4ccccc34)NC(=O)[C@@H]3C[C@@H](O)CN3C(=O)[C@H](CC(C)C)NC2=O)C(=O)N[C@@H](Cc2cn(CC(=O)OC)c3ccccc23)C(=O)N1C [Example 1003] ({CH2CO}-Y[NMeA]NP[Dap]L[Hyp]W[Dab][Trp(1-CH2CO2Me)][NMeNle][NMeNle]LCG-NH2; linker 5-9 via Oxalyl; thioether N-14) | 120 nM
CCCC[C@H]1C(=O)N(C)[C@@H](CCCC)C(=O)N[C@@H](CC(C)C)C(=O)N[C@H](C(=O)NCC(N)=O)CSCC(=O)N[C@@H](Cc2ccc(O)cc2)C(=O)N(C)[C@@H](C)C(=O)N[C@@H](CC(N)=O)C(=O)N(CC)[C@@H](C)C(=O)N[C@H]2CNC/C=C\CNCC[C@H](NC(=O)[C@H](Cc3c[nH]c4ccccc34)NC(=O)[C@@H]3C[C@@H](O)CN3C(=O)[C@H](CC(C)C)NC2=O)C(=O)N[C@@H](Cc2cn(CC(=O)O)c3ccccc23)C(=O)N1C [Example 1005] ({CH2CO}-Y[NMeA]N[NEtAla][X1]L[Hyp]W[X2][Trp(1-CH2COOH)][NMeNle][NMeNle]LCG-NH2; staple (Z) 5-9; thioether N-14) | 8.3 nM
CCCC[C@H]1C(=O)N(C)[C@@H](CCCC)C(=O)N[C@@H](CC(C)C)C(=O)N[C@H](C(=O)NCC(N)=O)CSCC(=O)N[C@@H](Cc2ccc(O)cc2)C(=O)N(C)[C@@H](C)C(=O)N[C@@H](CC(N)=O)C(=O)N2CCC[C@H]2C(=O)N[C@H]2CNC(=S)Nc3cc(cc(C(=O)O)c3)NC(=S)NCC[C@H](NC(=O)[C@H](Cc3c[nH]c4ccccc34)NC(=O)[C@@H]3C[C@@H](O)CN3C(=O)[C@H](CC(C)C)NC2=O)C(=O)N[C@@H](Cc2cn(CC(=O)O)c3ccccc23)C(=O)N1C [Example 1007] ({CH2CO}-Y[NMeA]NP[Dap]L[Hyp]W[Dab][Trp(1-CH2COOH)][NMeNle][NMeNle]LCG-NH2; linker 5-9 via X4; thioether N-14) | 78 nM
CCCC[C@H]1C(=O)N(C)[C@@H](CCCC)C(=O)N[C@@H](CC(C)C)C(=O)N[C@H](C(=O)NCC(N)=O)CSCC(=O)N[C@@H](Cc2ccc(O)cc2)C(=O)N(C)[C@H]2CN3CC[C@H](NC(=O)[C@H](Cc4c[nH]c5ccccc45)NC(=O)[C@@H]4C[C@@H](O)CN4C(=O)[C@H](CC(C)C)NC(=O)[C@H](CNc4c3c(=O)c4=O)NC(=O)[C@@H]3CCCN3C(=O)[C@H](CC(N)=O)NC2=O)C(=O)N[C@@H](Cc2cn(CC(=O)O)c3ccccc23)C(=O)N1C [Example 1002] | 210 nM
CCCC[C@H]1C(=O)N(C)[C@@H](CCCC)C(=O)N[C@@H](CC(C)C)C(=O)N[C@H](C(=O)NCC(N)=O)CSCC(=O)N[C@@H](Cc2ccc(O)cc2)C(=O)N(C)[C@@H](C)C(=O)N[C@@H](CC(N)=O)C(=O)N2CCC[C@H]2C(=O)N[C@H]2CNC(=O)NCCCCCCNC(=O)NCC[C@H](NC(=O)[C@H](Cc3c[nH]c4ccccc34)NC(=O)[C@@H]3C[C@@H](O)CN3C(=O)[C@H](CC(C)C)NC2=O)C(=O)N[C@@H](Cc2cn(CC(=O)O)c3ccccc23)C(=O)N1C [Example 1001] ({CH2CO}-Y[NMeA]NP[Dap]L[Hyp]W[Dab][Trp(1-CH2COOH)][NMeNle][NMeNle]LCG-NH2; linker 5-9 via X3; thioether N-14) | 4 nM
CCCC[C@H]1C(=O)N(C)[C@@H](CCCC)C(=O)N[C@@H](CC(C)C)C(=O)N[C@H](C(=O)NCC(N)=O)CSCC(=O)N[C@@H](Cc2ccc(O)cc2)C(=O)N(C)[C@@H](C)C(=O)N[C@@H](CC(N)=O)C(=O)N2CCC[C@H]2C(=O)N[C@H]2CNCC(O)COCC(O)CNCC[C@H](NC(=O)[C@H](Cc3c[nH]c4ccccc34)NC(=O)[C@@H]3C[C@@H](O)CN3C(=O)[C@H](CC(C)C)NC2=O)C(=O)N[C@@H](Cc2cn(CC(=O)O)c3ccccc23)C(=O)N1C (stereo partly drawn) [Example 1004] | 11 nM

Reference: patent US12421278B2, “Immunomodulators” (Bristol-Myers Squibb Company, priority 2020, dated 2025)
